Measurements: article PMC4488747, “Inhibition of P-glycoprotein Gene Expression and Function Enhances Triptolide-induced Hepatotoxicity in Mice” (Scientific Reports, 2015)

Columns and labels:
[1] = parameters: method as in PMID 24632843; details: bile duct-cannulated (BDC) rats, in 24 h; cited from earlier work
BALB/C mice [2] = assay: Liver histopathology (HE staining) in mice; assay type: in vivo; details: TP 1 mg/kg iv, 24 h, TP = NC-siRNA group, tariquidar and mdr1a-1 siRNA = given before TP
Protocol: For TP plasma kinetic study and toxicological evaluation, mice were divided into four groups (n = 5 each) to collect blood and tissue samples: (1) normal + saline group; (2) 1.0 mg/kg TP + 15 nmol NC-siRNA group; (3) 1.0 mg/kg TP + 15 nmol mdr1a-siRNA group; (4) 1.0 mg/kg TP + 10 mg/kg tariquidar group. In order to avoid the complication caused by drug absorption or possible intestinal first-pass effect, TP and the inhibitor were intravenously administrated to mice. The siRNA group was intravenously injected with NC-siRNA or mdr1a-siRNA 2 days before TP dose. For TP + tariquidar group, the mice were received an intravenous tariquidar dose 20 min prior to the TP injection. Blood samples were collected at 2, 5, 10, 15, 30, 60 and 120 min after TP dosing. To assess the liver exposure of TP, liver tissue samples were collected from another set of mice at 5, 30, 60 and 120 min after dosing. […] The concentrations of TP in plasma and liver tissue were measured by a validated LC-MS/MS method. […]
(§1) At 24 h of TP treatment, blood and liver tissue samples were collected from the mice in plasma kinetic study. Serum ALT and AST levels were determined with a CL8000 automated biochemical analyzer (Shimadzu, Japan) after serum was separated by centrifugation at 900 g for 10 min. […] The total protein concentration was quantified by the BCA assay. Bcl-2 and Bax proteins were measured by western blot.

BALB/C mice [3] = assay: Death rate of mice after TP treatment; assay type: in vivo; details: TP 1 mg/kg iv, pretreatment with mdr1a-siRNA
Protocol: For TP plasma kinetic study and toxicological evaluation, mice were divided into four groups (n = 5 each) to collect blood and tissue samples: (1) normal + saline group; (2) 1.0 mg/kg TP + 15 nmol NC-siRNA group; (3) 1.0 mg/kg TP + 15 nmol mdr1a-siRNA group; (4) 1.0 mg/kg TP + 10 mg/kg tariquidar group. In order to avoid the complication caused by drug absorption or possible intestinal first-pass effect, TP and the inhibitor were intravenously administrated to mice. The siRNA group was intravenously injected with NC-siRNA or mdr1a-siRNA 2 days before TP dose. For TP + tariquidar group, the mice were received an intravenous tariquidar dose 20 min prior to the TP injection. Blood samples were collected at 2, 5, 10, 15, 30, 60 and 120 min after TP dosing. To assess the liver exposure of TP, liver tissue samples were collected from another set of mice at 5, 30, 60 and 120 min after dosing. Three TP groups were design for this experiment, including TP + NC-siRNA group, TP + mdr1a-siRNA group and TP + tariquidar group. The liver tissue samples were weighed and then homogenized in 10 volume (w:v) of ice-cold saline. The concentrations of TP in plasma and liver tissue were measured by a validated LC-MS/MS method. […]

[4] = Preliminary experiment: effect of NC-siRNA on pharmacokinetics of TP in mice; assay type: in vivo; details: mice, plasma; for AUC(0-t) / Cmax / MRT / Vd / clearance: 1 mg/kg
Protocol: Effect of NC-siRNA on pharmacokinetic of TP
Mice were divided into two groups to collect blood samples (n=5 each): (1) 1.0 mg/kg TP + saline group; (2) 1.0 mg/kg TP + 15 nmol NC-siRNA group. The siRNA group was intravenously injected with NC-siRNA 2 days before TP dose. Blood samples were collected at 2, 5, 10, 15, 30, 60 and 120 min after TP dosing. The concentrations of TP in plasma and liver were measured by a validated LC-MS/MS method.

Bcl-2/Bax = assay: Bcl-2 and Bax expression in mouse liver (western blot); assay type: in vivo; details: mice, TP 1 mg/kg iv, 24 h; tariquidar and mdr1a-siRNA = given before TP
Protocol: For protein extraction, the cells or mice liver tissues were homogenized in RIPA buffer and then centrifuged at 14,000 g at 4 °C for 30 min. The supernatant was collected and the protein concentration was measured using BCA assay. The sample (50 μg protein/sample) was then loaded on 12% polyacrylamide gels and transferred to polyvinylidene difluoride membranes (Millipore, USA). After blocked by 3% bovine serum albumin, the membranes were incubated with primary antibodies and HRP-conjugated secondary antibody, and then detected using the enhanced chemiluminescence plus detection system (Molecular Device, Lmax, USA). The density of each band was quantified by using image analysis software (Science Lab 2005 Image Guage; Tokyo, Japan).
as §1, with “min. Liver tissue samples were divided into two parts, the first half was kept at −80 °C until MDA and SOD measurements using MDA and SOD assay kits (Nanjing Jiancheng Bioengineering Institute, Nanjing, China) according to the manufacturer’s instructions.” for “min.”

[5] = Hepatic concentrations of triptolide in mice; assay type: in vivo; details: mice liver
Protocol: For TP plasma kinetic study and toxicological evaluation, mice were divided into four groups (n = 5 each) to collect blood and tissue samples: (1) normal + saline group; (2) 1.0 mg/kg TP + 15 nmol NC-siRNA group; (3) 1.0 mg/kg TP + 15 nmol mdr1a-siRNA group; (4) 1.0 mg/kg TP + 10 mg/kg tariquidar group. In order to avoid the complication caused by drug absorption or possible intestinal first-pass effect, TP and the inhibitor were intravenously administrated to mice. The siRNA group was intravenously injected with NC-siRNA or mdr1a-siRNA 2 days before TP dose. For TP + tariquidar group, the mice were received an intravenous tariquidar dose 20 min prior to the TP injection. Blood samples were collected at 2, 5, 10, 15, 30, 60 and 120 min after TP dosing. To assess the liver exposure of TP, liver tissue samples were collected from another set of mice at 5, 30, 60 and 120 min after dosing. Three TP groups were design for this experiment, including TP + NC-siRNA group, TP + mdr1a-siRNA group and TP + tariquidar group. The liver tissue samples were weighed and then homogenized in 10 volume (w:v) of ice-cold saline. The concentrations of TP in plasma and liver tissue were measured by a validated LC-MS/MS method. Prior to the above animal study, a preliminary experiment was performed to assess the possible differences in liver P-gp protein expression (Figure S1) and TP plasma kinetics between NC-siRNA treated mice and normal mice (with saline) (Figure S2 and supplemental Table 1). […] Therefore, NC-siRNA group was used as the control in the following animal study.
The TP in plasma and tissue samples was quantitatively analyzed by a published LC-MS/MS method. The method was slightly modified and validated for analysis of plasma and liver tissue samples. Plasma and tissue homogenate were pretreated with 3-fold volume of methanol-acetonitrile (1:1, v/v) containing 20 ng/ml propranolol to precipitate proteins, and then centrifuged at 4°C, 14,000 g for 10 min. The supernatant (10 μl) was injected into LC-MS/MS for analysis. An Aglient 6410B triple quadrupole mass spectrometer equipped with Agilent1290 Infinity UHPLC system (Agilent Technologies, Santa Clara, CA) was used. TP and propranolol (internal standard, IS) were eluted from an Agilent C18 column (dp = 3.5 μm, 2.1 × 50 mm, Agilent, MA) using a mobile phase gradient (A: water with 0.1% formic acid and 2.5 mM ammonium formate, B: acetonitrile with 0.1% formic acid). The gradient was run as: 0–2.5 min hold at 95% B; 2.5–3 min, a linear gradient to 10% B; 3–4 min hold at 10% B. Flow rate was 0.2 ml/min. TP and propranolol were detected in positive ion mode using single reaction monitoring: TP, m/z 378.1/360.1, IS, m/z 260.0/116.0. Under the above optimized condition, no significant endogenous interferences were detected at the peak regions for TP and IS in all the biological specimens. The calibration curves of TP were linear (r^2 > 0.99) over the concentration range of 1–1000 ng/ml. The lower limit of quantification was at 1 ng/ml. The intra and inter-day precisions (RSD) were all below 11% and the assay accuracies (RE) were in the range from 87% to 113%. The recovery was above 80% for both plasma and tissue samples.

[6] = C57, mouse, iv, TP 1.0 mg/kg + saline
[7] = C57, mouse, iv, TP 1.0 mg/kg + 15 nmol NC-siRNA iv 2 days before

SMILES: CC(C)[C@]12O[C@H]1[C@@H]1O[C@]13[C@]1(O[C@H]1C[C@H]1C4=C(CC[C@@]13C)C(=O)OC4)[C@@H]2O [TP, Triptolide]
- TP dose excreted via bile [1]: ~39%
- Histopathological changes in liver (HE) (BALB/C mice [2]): hepatocellular hydropic degeneration and vacuolization
- Death rate within 30 h of TP treatment (BALB/C mice [3]): about 60%
- half-life [4, 6]: 12.6 ± 3 min
- AUC(0-t) [4, 7]: 99.1 ± 11.7 ng·h/mL
- Cmax [4, 7]: 330 ± 18.2 ng/mL
- MRT [4, 7]: 15.6 ± 2.4 min
- Vd [4, 7]: 3.1 ± 0.6 L/kg
- clearance [4, 7]: 173 mL/min/kg
- AUC(0-t) [4, 6]: 104 ± 13.4 ng·h/mL
- Cmax [4, 6]: 351 ± 10.9 ng/mL
- MRT [4, 6]: 13.8 ± 1.8 min
- Vd [4, 6]: 3 ± 0.3 L/kg
- clearance [4, 6]: 165 mL/min/kg
- t1/2 ([4]; TP 1.0 mg/kg + 15 nmol NC-siRNA iv 2 days before): 12.6 ± 3.6 min
- Bcl-2/Bax ratio in liver (Bcl-2/Bax): significantly reduced
- Hepatic concentration of TP ([5]; 5 min after TP 1.0 mg/kg iv, NC-siRNA pretreatment (control)): 1953.3 ± 786.7 ng/g protein
- Hepatic concentration of TP ([5]; 5 min after TP 1.0 mg/kg iv, mdr1a-siRNA iv 2 days before): 4278.0 ± 653.1 ng/g protein
- Hepatic concentration of TP ([5]; 5 min after TP 1.0 mg/kg iv, tariquidar 10 mg/kg iv 20 min prior): 2857.3 ± 909.4 ng/g protein
- Hepatic concentration of TP ([5]; 30 min after TP 1.0 mg/kg iv, NC-siRNA pretreatment (control)): 394.9 ± 41.2 ng/g protein
- Hepatic concentration of TP ([5]; 30 min after TP 1.0 mg/kg iv, mdr1a-siRNA iv 2 days before): 950.8 ± 232.1 ng/g protein
- Hepatic concentration of TP ([5]; 30 min after TP 1.0 mg/kg iv, tariquidar 10 mg/kg iv 20 min prior): 683.9 ± 61.3 ng/g protein
- Hepatic concentration of TP ([5]; 60 min after TP 1.0 mg/kg iv, NC-siRNA pretreatment (control)): 170.6 ± 66.3 ng/g protein
- Hepatic concentration of TP ([5]; 60 min after TP 1.0 mg/kg iv, mdr1a-siRNA iv 2 days before): 326.2 ± 22.4 ng/g protein
- Hepatic concentration of TP ([5]; 60 min after TP 1.0 mg/kg iv, tariquidar 10 mg/kg iv 20 min prior): 302.8 ± 22.7 ng/g protein
- Hepatic concentration of TP ([5]; 120 min after TP 1.0 mg/kg iv, NC-siRNA pretreatment (control)): 37.4 ± 12.2 ng/g protein
- Hepatic concentration of TP ([5]; 120 min after TP 1.0 mg/kg iv, mdr1a-siRNA iv 2 days before): 84.8 ± 14.5 ng/g protein
- Hepatic concentration of TP ([5]; 120 min after TP 1.0 mg/kg iv, tariquidar 10 mg/kg iv 20 min prior): 36.1 ± 14.4 ng/g protein
